Measured values taken from US20140256830A1, “RESORCINOL COMPOUNDS FOR DERMATOLOGICAL USE” (Ampere Life Sciences, Inc., priority 2013, published 2014).

Each compound was assayed on mushroom tyrosinase (Sigma T3824) (assay: Mushroom Tyrosinase Inhibition Assay). Settings: 10 μM compound, 300 μM L-Tyrosine, 84 units/mL enzyme, pH 6.5, 15 min room temperature.
Format: biochemical
Protocol: 10 μM compound, 300 μM L-Tyrosine, and 84 units/mL of mushroom tyrosinase (Sigma T3824) were combined into 0.05 M potassium monophosphate buffer at pH=6.5, and incubated for 15 min at room temperature. Absorbance was recorded at 490 nm. % tyrosinase inhibition was calculated as follows: (AbsDMSO−Abscmpd)/AbsDMSO×100. The assay was performed for various compounds described herein, as well as for control compounds 4-ethyl resorcinol (4ER), 4-isopropylresorcinol (4IPR), 4-hexylresorcinol (4HR), 4-cyclohexylresorcinol (4CHR), 5-methylresorcinol (5MR), kojic acid (KA), and hydroquinone (HQ), structures of which are shown below.

| Structure (SMILES) | Mushroom Tyrosinase (% remaining enzyme activity) % TYR Activity [%] |
| --- | --- |
| CC(C)c1ccc(O)cc1O [Compound 4IPR, 4-isopropylresorcinol, reference compound] | 1 |
| Oc1cc(O)c(C2CCCCC2)c(F)c1 [4,5CHFR, 4-cyclohexyl-5-fluorobenzene-1,3-diol] | 1 |
| O=c1cc(CO)occ1O [Kojic Acid, kojic acid, reference compound] | 84 |
| Cc1cc(O)cc(O)c1 [Compound 5MR, 5-methylresorcinol, reference compound] | 100 |
| CCc1ccc(O)cc1O [Compound 4ER, 4-ethyl resorcinol, reference compound] | 2 |
| Oc1cc(O)c(C2CCCCC2)c(C(F)(F)F)c1 [4,5CHTFMR] | 100 |
| Oc1ccc(O)cc1 [Hydroquinone, hydroquinone, reference compound] | 100 |
| CCc1c(O)cc(O)cc1C(F)(F)F [4,5ETFMR, 2-Ethyl-1,5-dihydroxy-3-trifluoromethyl-benzene] | 102 |
| Cc1cc(O)cc(O)c1C1CCCCC1 [4,5CHMR, 4-cyclohexyl-5-methylbenzene-1,3-diol] | 22 |
| Oc1cc(O)c(C2CCCCC2)c(F)c1 [4,5EFR, 4-cyclohexyl-5-fluorobenzene-1,3-diol] | 3 |
| Oc1ccc(C2CCCCC2)c(O)c1 [Compound 4CHR, 4-cyclohexylresorcinol, reference compound] | 0 |

The next lines start with the values.

| Mushroom Tyrosinase (% remaining enzyme activity) % TYR Activity [%] | Structure (SMILES) |
| --- | --- |
| 103 | Cc1cc(O)cc(O)c1CC(F)(F)F [4,5TFEMR, 4-(2,2,2-trifluoroethyl)-5-methylbenzene-1,3-diol] |
| 1 | CCCCCCc1ccc(O)cc1O [Compound 4HR, 4-hexylresorcinol, reference compound] |
| 93 | Oc1cc(O)c(Cc2ccccc2)c(C(F)(F)F)c1 [4,5BnTFMR, 2-Benzyl-1,5-dihydroxy-3-trifluoromethyl-benzene] |
| 10 | CCCCCCc1c(C)cc(O)cc1O [4,5HMR, 4-hexyl-5-methylbenzene-1,3-diol] |
| 71 | Cc1cc(O)cc(O)c1C1CCCC1 [4,5CPMR, 4-cyclopentyl-5-methylbenzene-1,3-diol] |
| 30 | Cc1cc(O)cc(O)c1C1CC1 [4,5CPrMR, 4-cyclopropyl-5-methylbenzene-1,3-diol] |
| 97 | Cc1cc(O)cc(O)c1Cc1ccccc1 [4,5BnMR, 4-benzyl-5-methylbenzene-1,3-diol] |
| 105 | Cc1cc(O)cc(O)c1C(C)c1ccccc1 (stereo not drawn) [4,5PEMR, 4-(1-phenylethyl)-5-methylbenzene-1,3-diol] |
| 32 | Cc1cc(O)cc(O)c1CC1CCCC1 [4,5MCPMR, 4-cyclopentylmethyl-5-methylbenzene-1,3-diol] |
| 100 | CCC(C)c1c(C)cc(O)cc1O (stereo not drawn) [4,5sBMR, 4-sec-butyl-5-methylbenzene-1,3-diol] |
| 93 | CCc1c(C)cc(O)cc1O [4,5EMR, 4-ethyl-5-methylbenzene-1,3-diol] |
| 108 | Cc1cc(O)cc(O)c1C(C)C [4,5IPMR, 4-isopropyl-5-methylbenzene-1,3-diol] |

What follows are compounds tested on human neonatal epidermal melanocytes (HEMn-DP) / HaCaT cells co-culture (assay: Melanocyte-HaCaT Co-Culture Assay). Settings: 10 μM concentration, 72 h, corrected for viability (Calcein-AM).
Format: cell-based
Protocol: Darkly pigmented human neonatal epidermal melanocytes (HEMn-DP, Invitrogen) were grown in Medium 254 with HMGS-2 supplement and P/S at 37° C. and 5% CO2. HaCaT cells were grown in DMEM, 10% FBS, P/S at 37° C., 5% CO2. Co-culture was conducted in 50% melanocyte media+50% keratinocyte media (EpiLife with EDGS, P/S). Cells were plated in the co-culture media at 40K (HaCaT) and 30K (HEMn-DP) per well in a 24-well plate. After 24 h of incubation at 37° C. and 5% CO2, media was changed to M153 (MCDB153 Sigma M7403 with NaHCO3 pH to 7.1, 2 mM Tyrosine, 10 nM NDP-aMSH, 3 ng/mL bFGF, 2.8 ug/mL Hydrocortisone, 10 ug/mL Insulin, 10 ug/mL Transferrin, and P/S), treated with compound, and incubated for 72 h at 37° C. and 5% CO2. After measuring cellular viability with Calcein-AM (RFU Ex/Em=488/525 nm), cells were lysed at 1 h at 65° C. with 1N NaOH+10% DMSO. Absorbance of cleared lysate was measured at 405 nm and 660 nm. % melanin was calculated as follows: ((Abs405DMSO−Abs660DMSO)/CalceinDMSO)−(Abs405comp−Abs660comp)/Calceincomp))/(Abs405DMSO−Abs660DMSO)/CalceinDMSO×100. At 10 μM concentration, % cellular melanin was 42% in the presence of compound 4,5CHMR.

| Structure (SMILES) | % cellular melanin [%] |
| --- | --- |
| Cc1cc(O)cc(O)c1C1CCCCC1 [4,5CHMR, 4-cyclohexyl-5-methylbenzene-1,3-diol] | 42 |
